{"source": "paper PMC5773580", "about": "“A synthetic combinatorial approach to disabling deviant Hedgehog signaling” (Scientific Reports, 2018)", "key": {"[1]": {"tested_on": "RMS13 cells (GLI1 amp), GLI-BS reporter", "test": "GLI-BS reporter assay in RMS13 cells (GLI1 amplification)", "format": "cell-based", "description": "The HH-responsive firefly luciferase reporter (GLI-BS) and a control Renilla luciferase reporter (SV40-RL) were transfected into indicated cell lines using Effectene (Qiagen) either alone or with indicated DNAs. 24 hrs after transfection, cells were switched to low serum media (3% calf serum), and grown for another 48 hrs. in 5% CO2 in the presence/absence of compounds. 3T3-ShhFL cell line that stably expressing SHH and the two reporters were cultured in a similar fashion. FL and RL activities in lysate generated using Passive Lysis Buffer (Promega) were then assessed using the Dual-Luciferase kit (Promega) and a 96-well plate reading luminometer (BMG). The ratio of FL/RL was calculated and the averaged ratios from three replicates were reported."}, "HDAC6": {"target": "T1, HDAC6 (Homo sapiens, UniProt Q9UBN7)", "T1 construct": "purchased BPS Bioscience #50051-11", "T1 sequence (Q9UBN7 1-1215)": "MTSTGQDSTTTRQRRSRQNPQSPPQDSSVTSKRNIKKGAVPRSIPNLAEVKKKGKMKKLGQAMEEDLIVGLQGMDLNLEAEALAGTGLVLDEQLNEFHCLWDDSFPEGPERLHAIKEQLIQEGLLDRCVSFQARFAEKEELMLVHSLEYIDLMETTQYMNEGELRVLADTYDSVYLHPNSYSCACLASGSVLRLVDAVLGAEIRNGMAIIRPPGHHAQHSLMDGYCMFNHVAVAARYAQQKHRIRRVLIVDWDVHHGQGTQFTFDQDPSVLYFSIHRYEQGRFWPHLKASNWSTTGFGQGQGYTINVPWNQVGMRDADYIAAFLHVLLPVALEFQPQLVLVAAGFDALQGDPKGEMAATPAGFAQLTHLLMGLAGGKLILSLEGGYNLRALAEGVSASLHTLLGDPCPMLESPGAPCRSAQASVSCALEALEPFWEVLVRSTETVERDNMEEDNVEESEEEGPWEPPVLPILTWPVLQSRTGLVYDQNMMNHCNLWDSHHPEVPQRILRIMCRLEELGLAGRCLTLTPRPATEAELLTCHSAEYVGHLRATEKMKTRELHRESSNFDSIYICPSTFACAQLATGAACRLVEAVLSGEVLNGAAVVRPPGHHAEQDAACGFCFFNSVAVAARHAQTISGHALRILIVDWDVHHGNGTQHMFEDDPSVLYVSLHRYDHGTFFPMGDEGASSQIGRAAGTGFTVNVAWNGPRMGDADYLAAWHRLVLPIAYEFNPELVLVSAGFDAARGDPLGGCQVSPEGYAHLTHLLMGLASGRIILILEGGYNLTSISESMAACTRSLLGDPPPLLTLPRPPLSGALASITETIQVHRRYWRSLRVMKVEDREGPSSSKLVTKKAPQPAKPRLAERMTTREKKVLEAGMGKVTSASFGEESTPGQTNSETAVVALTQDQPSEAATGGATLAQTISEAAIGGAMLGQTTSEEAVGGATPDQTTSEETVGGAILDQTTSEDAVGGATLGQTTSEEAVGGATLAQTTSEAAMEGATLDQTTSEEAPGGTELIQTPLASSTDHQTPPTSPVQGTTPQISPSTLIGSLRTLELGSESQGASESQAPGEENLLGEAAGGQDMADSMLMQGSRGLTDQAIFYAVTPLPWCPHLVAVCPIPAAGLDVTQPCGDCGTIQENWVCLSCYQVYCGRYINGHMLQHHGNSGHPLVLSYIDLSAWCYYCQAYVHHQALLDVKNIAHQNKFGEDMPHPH", "test": "In vitro HDAC profiling (deacetylation assay), HDAC6", "format": "biochemical", "conditions": "for HDAC Activity (Fluorescent counts): Repeat1/Repeat 2", "description": "HDAC profiling was performed at BPS Bioscience (San Diego, CA). All of the compounds are dissolved in DMSO. A series of dilutions of the compounds were prepared with 10% DMSO in HDAC assay buffer (#50031) and 5 µl of the dilution was added to a 50 µl reaction so that the final concentration of DMSO is 1% in all of reactions. All of the enzymatic reactions were conducted in duplicate at 37 °C for 30 mins, except that the enzyme reactions for HDAC11 were at room temperature for 3 hrs. All of the reactions were performed in a 50 µl mixture containing HDAC assay buffer, 5 µg BSA, an HDAC substrate [HDAC Substrate 3 (BPS number 50037) or HDAC Class 2a Substrate 1 (BPS number 50040)], an HDAC enzyme (#50051-11) and a test compound. After enzymatic reactions, 50 μl of HDAC Developer (#50030) was added to each well and the plate was incubated at room temperature for an additional 20 mins. Fluorescence intensity was measured at an excitation of 360 nm and an emission of 460 nm using a Tecan Infinite M1000 microplate reader. HDAC activity assays were performed in duplicates at each concentration. The fluorescent intensity data were analyzed using the computer software, Graphpad Prism. In the absence of the compound, the fluorescent intensity (Ft) in each data set was defined as 100% activity. In the absence of HDAC, the fluorescent intensity (Fb) in each data set was defined as 0% activity. The percent activity in the presence of each compound was calculated according to the following equation: %activity = (F − Fb)/(Ft − Fb), where F = the fluorescent intensity in the presence of the compound. The values of % activity versus a series of compound concentrations were then plotted using non-linear regression analysis of Sigmoidal dose-response curve generated with the equation Y = B + (T − B)/1 + 10((LogIC50 − X) × Hill Slope), where Y = percent activity, B = minimum percent activity, T = maximum percent activity, X = logarithm of compound and Hill Slope = slope factor or Hill coefficient. The IC50 value was determined by the concentration causing a half-maximal percent activity."}}, "note": "Values joined by “and” are separate entries in the source; they are usually repeats but may differ in a detail not shown here. Identical values can stand only once.", "data": [{"smiles": "O=C(CCCCCCC(=O)Nc1ccc(Cl)c(C(=O)Nc2ccc(NC(=O)c3cc(Cl)ccc3Cl)cc2)c1)NO", "note": "[IHR-SAHA]", "values": [{"measurement": "IC50", "setting": "[1]", "value": 1.3, "unit": "µM"}, {"measurement": "HDAC Activity (Fluorescent counts)", "setting": "HDAC6; HDAC6, WW01 0 Log nM", "value": "17916 Fluorescent counts and 17639 Fluorescent counts"}, {"measurement": "HDAC Activity (Fluorescent counts)", "setting": "HDAC6; HDAC6, WW01 0.5 Log nM", "value": "16713 Fluorescent counts and 17763 Fluorescent counts"}, {"measurement": "HDAC Activity (Fluorescent counts)", "setting": "HDAC6; HDAC6, WW01 1 Log nM", "value": "14605 Fluorescent counts and 14491 Fluorescent counts"}, {"measurement": "HDAC Activity (Fluorescent counts)", "setting": "HDAC6; HDAC6, WW01 1.5 Log nM", "value": "11120 Fluorescent counts and 11971 Fluorescent counts"}, {"measurement": "HDAC Activity (Fluorescent counts)", "setting": "HDAC6; HDAC6, WW01 2 Log nM", "value": "7800 Fluorescent counts and 7793 Fluorescent counts"}, {"measurement": "HDAC Activity (Fluorescent counts)", "setting": "HDAC6; HDAC6, WW01 2.5 Log nM", "value": "5185 Fluorescent counts and 5345 Fluorescent counts"}, {"measurement": "HDAC Activity (Fluorescent counts)", "setting": "HDAC6; HDAC6, WW01 3 Log nM", "value": "4209 Fluorescent counts and 4174 Fluorescent counts"}, {"measurement": "HDAC Activity (Fluorescent counts)", "setting": "HDAC6; HDAC6, WW01 3.5 Log nM", "value": "3548 Fluorescent counts and 3756 Fluorescent counts"}, {"measurement": "HDAC Activity (Fluorescent counts)", "setting": "HDAC6; HDAC6, WW01 4 Log nM", "value": "3616 Fluorescent counts and 3660 Fluorescent counts"}, {"measurement": "HDAC Activity (Fluorescent counts)", "setting": "HDAC6; HDAC6, WW01 -0.5 Log nM", "value": "18352 Fluorescent counts and 17865 Fluorescent counts"}, {"measurement": "IC50", "setting": "HDAC6; in vitro deacetylation assay, duplicates", "value": 0.047, "unit": "µM"}]}]}
